Results taken from a melting point compilation (Tetko et al.).

| Compound | melting point |
| --- | --- |
| COc1cc2c(c3oc(=O)c4c(c13)CCC4=O)C1C=COC1O2 (stereo not given) | 268 to 269 °C |
| O=C(OC(=O)C(Cl)Cl)C(Cl)Cl | 29 °C |
| O=P(c1ccc(Cl)cc1)(c1ccc(Cl)cc1)c1ccc(Cl)cc1 | 176 to 178 °C |
| O=C(O)CCCCC1CCSS1 (stereo not given) | 60.5 °C |
| O=C(O)c1cc(-c2cccs2)on1 | 168 °C |
| O=S(=O)(Cl)c1ccc(-c2nsc(Cl)n2)s1 | 71 to 74 °C |
| O=Cc1ccc(F)c(Br)c1 | 31 °C |
| COc1ccc(-c2csc(/C(C#N)=C/c3ccc(Cl)cc3Cl)n2)cc1 | 142 °C |
| NCc1ccc(CN2CCOCC2)cc1 | 54 to 55 °C |
| CCC(Cl)CC | -105 °C |
| Cc1nc(=O)c2ccccc2[nH]1 | 232 °C |
| COc1ccc(C(O)(c2cc(OC)c(OC)c(OC)c2)c2ccc(OC)cc2OC)c(OC)c1 | 109 °C |
| O=C(O)C(F)=Cc1ccccc1 | 158 °C |
| FC(F)(F)C(F)(F)Cl | -99.4 °C |
| Cc1cccc(C)c1NC(=O)c1cnc(C(C)(C)C)cn1 | 85 °C |
| CSC(SC)=C1CCCC(=C(SC)SC)C1=C(C#N)C#N | 155 to 156 °C |
| CC(=O)Nc1ccc(C(C)=O)cc1 | 169 °C |
| Cc1cc2c(c(C)c1C)CC2 | 38 °C |
| COc1cc(C=CC(=O)O)cc(OC)c1OC | 127 °C |
| COC(=O)c1c(C(F)F)nc(C(F)(F)F)c(C2=NCCS2)c1CC(C)C | 78 °C |
| BrCC(Br)C1CCC(Br)C(Br)C1 (stereo not given) | 70 °C |
| COc1ccccc1/C=C(\C#N)c1nc2ccccc2s1 | 158 °C |
| CC(=O)OC(OC(C)=O)c1ccc2c(c1)C(=O)c1c(Cl)c(Cl)c(Cl)c(Cl)c1C2=O | 172 °C |
| CCN(CC)c1ccc(N=C=S)cc1 | 32 °C |
| CCC(C(=O)O)c1ccccc1 (stereo not given) | 47.5 °C |
| CCOC(=O)Nc1ccc2nn(C3CCCC3)nc2c1 | 122 °C |

| Compound | melting point |
| --- | --- |
| CCCCc1cc2c(O)c(C(=O)OC)cnc2cc1OCc1ccccc1 | 288 °C |
| CS(=O)(=O)CC(=O)O | 117 °C |
| O=C(Cl)c1ccc(N2CCOCC2)nc1 | 158 to 159 °C |
| CCCOC(=O)C1=C(C)NC(=S)NC1c1cccc([N+](=O)[O-])c1 (stereo not given) | 209 °C |
| NNC(=O)c1ccc(Cl)cc1Cl | 169 °C |
| CON(C)C(=O)Nc1ccc(Br)c(Cl)c1 | 96 °C |
| O=[N+]([O-])c1ccc(-n2cc[nH]c2=S)cc1 | 232 to 233 °C |
| OC1Cc2ccccc2C1 | 70 °C |
| COc1ccc(N/N=C(\C#N)c2nc(-c3ccccc3)cs2)cc1 | 150 °C |
| COc1cc(Cl)nc(OC)n1 | 74 to 76 °C |
| NC(=S)c1ccccc1Br | 83 to 85 °C |
| CCCOC(=O)C1=C(C)NC(=O)NC1c1cccc(OC)c1OC (stereo not given) | 163 °C |
| O=C1c2ccc(O)cc2OC(c2ccc(O)c(O)c2)C1O (stereo not given) | 227 °C |
| CC(=O)NC(C)C(=O)O (racemic) | 137 °C |
| CC(=O)c1ccc(C2CC2(Cl)Cl)cc1 (stereo not given) | 35 °C |
| Nc1cc(S(=O)(=O)O)ccc1Cl | 300 °C |
| O=C(O)C1CCCN1 (stereo not given) | 228 to 233 °C |
| Cc1nc(C(N)=S)cs1 | 201 to 203 °C |
| OCCN(CCO)C(CO)(CO)CO | 104 °C |
| CS(=O)(=O)c1ccc2ccn(O)c2c1 | 174 to 176 °C |
| Brc1ccc2[nH]c3ccccc3c2c1 | 195 to 197 °C |
| N#Cc1cccc(N2CCCC2)c1 | 84 to 85 °C |
| CC(O)c1cc(C(F)(F)F)cc(C(F)(F)F)c1 (stereo not given) | 72 °C |
| O=C1c2ccccc2C(=O)c2c([N+](=O)[O-])ccc(O)c21 | 273 to 275 °C |
| COC(=O)c1cc(OC)c(C)c(OC)c1 | 104 °C |
| CC(C)C1=C(O)C(=O)C2=C(CC(O)C3C(C)(C)CCCC23C)C1=O (stereo not given) | 188 °C |

| Compound | melting point |
| --- | --- |
| CC(C)[Si](Cl)(Cl)Cl | -87.7 °C |
| CCOC(=O)C(=NNc1ccccc1[N+](=O)[O-])C(=O)OCC | 196 °C |
| Cc1cc(C)c(CS)c(C)c1CS | 65 to 66 °C |
| CN(C)CCOCCN(C)C | -80 °C |
| CCCCCCCF | -73 °C |
| CSc1nc(N)nc(C(C)(C)C)n1 | 102 to 104 °C |
| Nc1c(Oc2ccccc2)c(Oc2ccccc2)c(N)c2c1C(=O)c1ccccc1C2=O | 195 °C |
| CCC(Cc1c(I)cc(I)c(O)c1I)C(=O)O (stereo not given) | 147 °C |
| NS(=O)(=O)Cc1ccccc1 | 103 °C |
| O=C(O)c1cc2cccnc2nc1C(F)(F)F | 309 to 310 °C |
| O=C(O)CCC(=O)OOC(=O)CCC(=O)O | 127 °C |
| NC(=NO)c1cccc(Cl)c1 | 115 to 117 °C |
| COC1=C(OC)C(C(COS(C)(=O)=O)OS(C)(=O)=O)OC1=O (stereo not given) | 77 to 79 °C |
| O=C(C(=O)c1cccc2ccccc12)c1ccccc1 | 102 °C |
| CCCCOC(=O)C1(O)c2ccccc2-c2ccccc21 | 71 °C |
| COc1ccccc1OCC(O)COC(N)=O (stereo not given) | 93 °C |
| CN(C)c1ccc(C2C3=C(CC(C)(C)CC3=O)Nc3ccc4ccccc4c32)cc1 (stereo not given) | 327 °C |
| CCNc1nsc2ccccc12 | 78 °C |
| CCOC(=O)C(C)=O | -50 °C |
| CN(C)c1ccccc1C(=O)O | 72 °C |
| CC(NNC(=O)c1ccccc1)c1ccccc1 (stereo not given) | 93.5 °C |
| CCCCCCCSCCCCCCC | 70 °C |
| NCCCCCCCCCN | 38 °C |
| O=C(O)C=Cc1ccc(C=CC(=O)O)cc1 | 300 °C |
| NC1C2CN(c3nc4c(cc3F)c(=O)c(C(=O)O)cn4-c3ccc(F)cc3F)CC12 (stereo not given) | 246 °C |
| O=C1c2ccccc2C(=O)N1Br | 206 °C |

| Compound | melting point |
| --- | --- |
| N#Cc1ccc(OC2CCOCC2)nc1 | 134 to 135 °C |
| CO[Si](OC)(OC)OC | 4.5 °C |
| O=C(NC(=O)c1c(F)cccc1F)Nc1ccc(Cl)cc1 | 239 °C |
| COc1cc(Cl)c(Cl)cc1Cl | 77.5 °C |
| CC(C)(C)NSc1nc2ccccc2s1 | 108 °C |
| CCc1cccc2ccccc12 | -13.9 °C |
| O=S(=O)(Cl)c1sccc1Br | 39 to 41.5 °C |
| Cc1cccc(C)c1NC(=O)C=CC(=O)O | 169 °C |
| ClC(Cl)=C(Cl)C(Cl)=C(Cl)Cl | -21 °C |
| CCOC(=O)C1CCN(c2nc(Cl)nc(Cl)n2)CC1 | 150 °C |
| Cc1oc(-c2ccccc2)nc1C=O | 87 to 88 °C |
| O=[N+]([O-])c1cccnc1N1CCN(CCO)CC1 | 82 to 83 °C |
| O=C(Nc1nnc(-c2ccc(Cl)cc2)o1)c1ccc(F)cc1 | 282 to 284 °C |
| COc1c(F)cc(O)cc1F | 69 °C |
| O=[N+]([O-])c1ccc(-c2cn3c(n2)sc2ccccc23)cc1 | 285 to 286 °C |
| O=C(O)C=Cc1ccccc1Cl | 209 to 212 °C |
| O=S1(=O)Cc2ccccc2C1 | 151 to 152 °C |
| CCOC(=O)CC=C(c1ccc(OC)cc1)C(C)(C)C(=O)OCC | 146 °C |
| CCSC(SCC)C(O)C(O)C(O)C(O)CO (stereo not given) | 140 to 142 °C |
| FC(F)(F)c1ccc(N2CCNCC2)cc1 | 89 to 92 °C |
| Cc1csc2nc3ccccc3n12 | 161 to 163 °C |
| COc1ccc(NC(=O)C=CC(=O)O)cc1 | 190 to 193 °C |
| CC(C)CCCC(C)(C)C | -105 °C |
| N#Cc1c(Cl)cccc1Oc1ccc(S(=O)(=O)Cl)cc1 | 137 to 139 °C |
| CCOC(=O)c1cnc2sc(C(F)(F)F)nn2c1=N | 198 °C |
| Cc1c(C(=O)O)cc(-c2ccccc2)n1-c1ccccc1 | 226 to 227 °C |

| Compound | melting point |
| --- | --- |
| CN1CCN(c2cccc(N)c2)CC1 | 98 to 99 °C |
| CC1CC(N(C)C)C(O)C(OC2C(C)CC(C)C(=O)C=CC(C)C(C(C)O)OC(=O)C2C)O1 (stereo not given) | 157 °C |
| Cc1ccc(C)c(OCCCC(C)(C)C(=O)O)c1 | 61 °C |
| CS(=O)(=O)NC(=O)c1cc(Oc2ccc(C(F)(F)F)cc2Cl)ccc1[N+](=O)[O-] | 220 °C |
| O=C1c2ccccc2C(=O)C1c1ccc(Cl)cc1 | 146 °C |
| O=C1CCCCC1 | -26 °C |
| C=CCOC1(C#Cc2ccccc2)Cc2ccccc21 (stereo not given) | 50 °C |
| CC(=O)OCC(=O)C12N=C(C)OC1CC1C3CCC4=CC(=O)C=CC4(C)C3C(O)CC12C (stereo not given) | 256 °C |
| CCOC(=O)c1c(-c2ccccc2)csc1NC(=O)C(Cl)Cl | 92 to 93 °C |
| COc1ccc(C(Cl)=C(c2ccc(OC)cc2)c2ccc(OC)cc2)cc1 | 115 °C |
| CC12CCC(C(C(O)c3ccccc3)OC1=O)C2(C)C (stereo not given) | 156 °C |
| O=C(CBr)c1cccs1 | 109 to 111 °C |
| O=C(N[C@H](Cc1ccccc1F)C(=O)O)OCC1c2ccccc2-c2ccccc21 | 145 °C |
| O=C(O)Cc1ccccc1CC(=O)O | 151 °C |
| CCCCOCN(C(=O)CCl)c1c(CC)cccc1CC | -0.55 °C |
| O=C(O)C(O)c1cc(F)cc(F)c1 (stereo not given) | 136 °C |
| O=C1OC(OC2OC(=O)C(Cl)=C2Cl)C(Cl)=C1Cl (stereo not given) | 142 °C |
| N#CC(C#N)=C1Sc2nc3ccccc3nc2S1 | 221 °C |
| Cc1c(C)c(C)c(C=O)c(C)c1C | 146 to 148 °C |
| O=C1C(=C2C=Cc3ccc(O)cc3N2)C(=O)c2ccccc21 | 266 to 267 °C |
| Cc1cc([N+]([O-])=Nc2ccccc2)ccc1[N+]([O-])=Nc1ccccc1 | 100 °C |
| CCOC(=O)c1cccc(N)c1 | 29 °C |
| O=C(CBr)c1ccc(-c2ccccn2)s1 | 123 to 126 °C |
| Nc1ccc(N)nc1 | 110 °C |
| O=C(NC(=S)Nc1ccc(Cl)cc1)c1ccc(-c2ccccc2)cc1 | 165 °C |
| O=C(O)c1cc(Cl)sc1Cl | 148 °C |
